Assay results published in US20250000855A1, “USE OF APOMORPHINE AS THERAPEUTIC AGENT FOR NECROPTOSIS-RELATED DISEASES” (INDUSTRY-ACADEMIC COOPERATION FOUNDATION, YONSEI UNIVERSITY, priority 2021, published 2025).

Legend:
DSS-induced colitis = DSS-induced colitis mouse model; assay type: in vivo, C57BL/6 mice
Description: An animal experiment was performed on 6 to 8-week-old male C57BL/6 mice in accordance with the procedures approved by the Animal Care and Use Committee of the Yonsei Laboratory Animal Research Center (YLARC, 2018-0024) at Yonsei University. The mice were housed in polypropylene cages with a maximum of four mice per cage under constant temperature and humidity, and the light/dark cycle was 12 hours/12 hours. All mice were given an acclimation period of at least 7 days before participation.
For colitis induced by dextran sulfate sodium (DSS, 36-50 kDa, MP Biomedicals), the mice were administered 2.5% DSS in drinking water for 7 days. The mice were randomly divided into 8 groups as follows. • 1) Control • 2) Apomorphine-treated group (=APO; STK088477, Vitas-M, 1.5 mg/kg, daily intraperitoneal injection) • 3) APO-treated group (15 mg/kg, daily intraperitoneal injection) 4) DSS-treated group • 5) DSS and necrostatine-1-treated group (NEC-1; Biovision, 1864-5, 1.5 mg/kg, daily intraperitoneal injection) • 6) DSS and APO-treated group (0.15 mg/kg, daily intraperitoneal injection) • 7) DSS and APO-treated group (1.5 mg/kg, daily intraperitoneal injection) • 8) DSS and APO-treated group (15 mg/kg, daily intraperitoneal injection)
The body weights and disease activity index (DAI) scores of the mice were recorded daily. DAI was calculated by adding scores of body weight loss (0 point=none, 1 point=1%-5% weight loss, 2 points=5%-10% weight loss, 3 points=10%-15% weight loss, 4 points=15% or more weight loss), stool consistency/diarrhea (0 point=normal, 2 points=loose stools, 4 points=watery diarrhea), and bleeding (0 point=no bleeding, 2 points=slight bleeding, 4 points=total bleeding). At the end of the experiment, the mice were sacrificed, the colon was removed, and then changes in colon length were confirmed, and a weight loss was measured.
At the end of the experiment, the mice were sacrificed, and the colon was removed (without the cecum). The removed colon was washed with cold phosphate-buffered saline (PBS; Welgene, LB001-02) before the measurement of its length. The measured colon was prepared for further analysis by cutting intestinal segments along the mesenteric line and washing with PBS. Then, the intestinal segments were placed in a petri dish and fixed with modified Bouin's fixative (50% ethanol/5% acetic acid in dH2O). The lumen side was maintained upward by holding the proximal end with forceps in one hand and a toothpick in the other. Then, the flat open end of the colon was pulled with the forceps and the proximal end was wrapped around the toothpick. The entire large intestine was wrapped, placed in a cassette, and immersed in 4% paraformaldehyde (Biosesang, PC2031-100-00) at 4° C. overnight.
After the experiment, colon tissues collected from the sacrificed mice were fixed in 4% paraformaldehyde overnight. Swiss-rolled and fixed colon specimens were embedded in paraffin. The specimens were cut into 5-μm sections, and then the sections were stained with hematoxylin and eosin (H & E). The histological evaluation of colitis lesions along the entire length was performed with reference to a scoring system of the degree of crypt structure damage (0˜3), the degree of inflammatory cell infiltration (0˜3), and submucosal edema (0˜3).
5-μm cut paraffin sections were blocked with 5% BSA-supplemented TBS-T, and then the sections and primary antibodies were co-incubated at 4° C. overnight. Secondary antibodies were added and incubated for 1 hour. […]

[1] = molecular target: T1, MLKL N-term domain (amino acids 1-154) (Homo sapiens, UniProt Q8NB16); assay: Surface plasmon resonance (SPR) analysis, binding to MLKL N-term domain; conditions: MLKL N-term domain immobilized on CM5 chip, Biacore T200, 25° C., 10 mM HEPES pH 7.4
T1 construct: MLKL N-term (amino acids 1-154) protein that had been purified in a laboratory; made in house
T1 sequence (Q8NB16 1-154): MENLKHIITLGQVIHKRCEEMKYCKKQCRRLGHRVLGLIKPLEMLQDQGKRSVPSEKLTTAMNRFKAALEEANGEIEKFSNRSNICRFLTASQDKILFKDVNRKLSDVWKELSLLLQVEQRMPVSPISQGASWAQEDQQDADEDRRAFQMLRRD
Description: The interaction between MLKL and apomorphine (=APO) was detected through surface plasmon resonance (SPR) analysis using Biacore T200 (GE Healthcare). For pH scouting, a buffer consisting of 10 mM sodium acetate (pH 4.0 to 6.0) was used. MLKL protein (Abcam, ab241453), and MLKL N-term (amino acids 1-154) protein that had been purified in a laboratory were immobilized on the surface of a sensor chip CM5 (GE Healthcare) under scouted buffer conditions. To deduce an Rligand value, a coupling process was performed based on the molecular weights of MLKL, MLKL N-term domain (MW ligand), and APO (MW analyte). Oxidized (24 hr, RT incubation) and reduced (+DTT(DL-dithiothreitol)) forms of APO were injected into a running buffer (flow rate: 10 μl/min) consisting of 10 mM HEPES (pH 7.4) at 25° C. A sensorgram was recorded and analyzed in real time using control software provided by the Biacore T200 system itself. Six or more concentrations of APO were used in combination, and each KD value was derived. All run data was calculated using BIAevaluation Software (GE Healthcare).
SPR analysis was used to analyze the interaction pattern between APO and the MLKL protein (Experimental Method 1-10). […] Here, the analysis was performed by binding MLKL and the MLKL N-term domain protein immobilized on a CM5 chip with APO having six concentrations.

## CN1CCc2cccc3c2[C@H]1Cc1ccc(O)c(O)c1-3 [APO, apomorphine]
DSS-induced colitis; DSS mice, APO 0.15, 1.5, and 15 mg/kg daily intraperitoneal injection, FIG. 7A
  characteristic symptoms of colitis observed by H&E staining and PAS staining: alleviated in a concentration-dependent manner
DSS-induced colitis; DSS mice, APO daily intraperitoneal injection, FIG. 7A
  HI score: reduce
DSS-induced colitis; DSS mice, APO daily intraperitoneal injection, FIG. 7B
  degree of colon shortening: reduce
DSS-induced colitis; DSS mice, APO daily intraperitoneal injection, FIG. 7C
  DAI score: reduce
DSS-induced colitis; mice without DSS, APO 1.5 or 15 mg/kg daily intraperitoneal injection
  differences due to treatment with APO alone (without DSS): no differences
[1]
  Kd: 62.5 nM
